Measurements from US9969758B2, “Antimicrobial compounds” (BIOMERIEUX, priority 2014, dated 2018).
Values after ≈ are worked out from the molar mass of the structure shown. One block for each molecule: values may come before it.

Tests used:
[1] = test system: Enterobacter cloacae NCTC 11936; assay: MIC by agar dilution, single strains; assay type: cell-based; settings: NCTC11936, 22 hours of incubation, read-out: Minimum inhibitory concentration (MIC)
Method: (§1) Determining the minimum inhibitory concentrations (MIC). All the MICs were determined using an agar dilution method. This required use of a medium without a defined antagonist (peptone-free), prepared as described previously with the inclusion of 2% horse blood lysed with saponin, 25.0 μg/mL of NAD and 25.0 μg/mL of hemin [17]. The compounds tested were dissolved in sterile deionised water and incorporated into the agar medium in a concentration range of 0.0031 to 8.0 μg/mL (0.016 to 32 μg/mL for gram-positive bacteria). All the isolates were prepared at a density equivalent to 0.5 McFarland units in sterile deionised water using a densitometer (approximately 1.5×10^8 CFU/mL), and then diluted to 1 for 15. An aliquot of 1 μL of each diluted suspension was then placed onto plates with a multispot inoculator to give the final recommended inoculation of 10 000 CFU/spot. The MICs of fosfomycin were determined by the same method, except that the IsoSensitest medium (Oxoid, Basingstoke, United Kingdom) was used, plus 25.0 μg/mL of glucose-6-phosphate (Sigma, Poole, United Kingdom) and an extended range of fosfomycin concentrations. All the dishes (including the antimicrobial-free controls) were incubated for 22 hours at 37° C. All the tests were performed on at least two independent replicates in order to examine the reproducibility.

[2] = test system: Escherichia coli NCTC 12241; assay: MIC by agar dilution, single strains; assay type: cell-based; settings: NCTC12241, 22 hours of incubation, read-out: Minimum inhibitory concentration (MIC)
Method: as §1

[3] = test system: Pseudomonas aeruginosa NCTC 10662; assay: MIC by agar dilution, single strains; assay type: cell-based; settings: NCTC10662, 22 hours of incubation, read-out: Minimum inhibitory concentration (MIC)
Method: as §1

[4] = test system: Salmonella typhimurium NCTC 74; assay: MIC by agar dilution, single strains; assay type: cell-based; settings: Salmonella enterica, 22 hours of incubation, read-out: Minimum inhibitory concentration (MIC)
Method: as §1

[5] = test system: Staphylococci epidermidis NCTC 11047; assay: MIC by agar dilution, single strains; assay type: cell-based; settings: 22 hours of incubation, read-out: Minimum inhibitory concentration (MIC)
Method: as §1

[6] = test system: Serratia marcescens NCTC 10211; assay: MIC by agar dilution, single strains; assay type: cell-based; settings: NCTC10211, 22 hours of incubation, read-out: Minimum inhibitory concentration (MIC)
Method: as §1

[7] = test system: Escherichia coli NCTC 10418; assay: MIC by agar dilution, single strains; assay type: cell-based; settings: NCTC10418, 22 hours of incubation, read-out: Minimum inhibitory concentration (MIC)
Method: as §1

[8] = test system: Klebsiella pneumoniae NCTC 9528; assay: MIC by agar dilution, single strains; assay type: cell-based; settings: NCTC9528, 22 hours of incubation, read-out: Minimum inhibitory concentration (MIC)
Method: as §1

[9] = test system: Enterococcus faecium NCTC 7171; assay: MIC by agar dilution, single strains; assay type: cell-based; settings: NCTC7171, 22 hours of incubation, read-out: Minimum inhibitory concentration (MIC)
Method: as §1

[10] = test system: Enterococcus faecalis NCTC 775; assay: MIC by agar dilution, single strains; assay type: cell-based; settings: NCTC775, 22 hours of incubation, read-out: Minimum inhibitory concentration (MIC)
Method: as §1

[11] = test system: Acinetobacter baumannii ATCC 19606; assay: MIC by agar dilution, single strains; assay type: cell-based; settings: ATCC19606, 22 hours of incubation, read-out: Minimum inhibitory concentration (MIC)
Method: as §1

[12] = test system: Burkholderia cepacia ATCC 25416; assay: MIC by agar dilution, single strains; assay type: cell-based; settings: ATCC25416, 22 hours of incubation, read-out: Minimum inhibitory concentration (MIC)
Method: as §1

[13] = test system: Staphylococcus aureus NCTC 11939 (SARM); assay: MIC by agar dilution, single strains; assay type: cell-based; settings: NCTC11939, 22 hours of incubation, read-out: Minimum inhibitory concentration (MIC)
Method: as §1

[14] = test system: Salmonella enteritidis NCTC 6676; assay: MIC by agar dilution, single strains; assay type: cell-based; settings: Salmonella enterica, 22 hours of incubation, read-out: Minimum inhibitory concentration (MIC)
Method: as §1

[15] = test system: Yersinia enterocolitica NCTC 11176; assay: MIC by agar dilution, single strains; assay type: cell-based; settings: NCTC11176, 22 hours of incubation, read-out: Minimum inhibitory concentration (MIC)
Method: as §1

[16] = test system: Providencia rettgeri NCTC 7475; assay: MIC by agar dilution, single strains; assay type: cell-based; settings: NCTC7475, 22 hours of incubation, read-out: Minimum inhibitory concentration (MIC)
Method: as §1

[17] = test system: Listeria monocytogenes NCTC 11994; assay: MIC by agar dilution, single strains; assay type: cell-based; settings: NCTC11994, 22 hours of incubation, read-out: Minimum inhibitory concentration (MIC)
Method: as §1

[18] = test system: Staphylococcus aureus NCTC 6571; assay: MIC by agar dilution, single strains; assay type: cell-based; settings: NCTC6571, 22 hours of incubation, read-out: Minimum inhibitory concentration (MIC)
Method: as §1

E. faecium (34) = assay: MIC by agar dilution; assay type: cell-based, Enterococcus faecium; settings: Enterococcus faecium, E. faecium (34)
Source text: (§2) A collection of 50 isolates of Staphylococci aureus included 36 strains of methicillin-resistant S. aureus (MRSA) frequently encountered in Europe, including strains isolated in Belgium, Finland, France, Germany and the United Kingdom. Another strain of MRSA, NCTC 11939, was included as a control, as well as a methicillin-sensitive control (NCTC 6571). Twelve other isolates of methicillin-sensitive Staphylococcus aureus (MSSA) recently collected from blood cultures were also included. Finally, 50 isolates of enterococci included two control strains (Enterococcus faecalis NCTC 755 and Enterococcus faecium NCTC 7171) and 48 isolates originating from clinical samples obtained from at least three different hospitals. The clinical isolates included E. faecalis (n=10), E. faecium (n=33), Enterococcus casseliflavus (n=3), Enterococcus gallinarum (n=2).
as §1

[19] = test system: glycopeptide-resistant enterococci; assay: MIC by agar dilution; assay type: cell-based; settings: GRE (43)
Source text: as §2, §1

All Enterococci (50) = assay: MIC by agar dilution; assay type: cell-based; settings: All Enterococci (50)
Source text: as §2, §1

[20] = test system: methicillin-sensitive Staphylococcus aureus; assay: MIC by agar dilution; assay type: cell-based; settings: MSSA (13)
Source text: as §2, §1

[21] = test system: methicillin-resistant Staphylococcus aureus; assay: MIC by agar dilution; assay type: cell-based
Source text: as §2, §1

E. coli (53) = assay: MIC by agar dilution; assay type: cell-based, Escherichia coli; settings: E. coli (53)
Source text: (§3) Bacterial isolates. […] These included Citrobacter freundii (n=5), other species of Citrobacter (n=4), Enterobacter aerogenes (n=1), Enterobacter cloacae (n=27), Escherichia coli (n=53), Klebsiella oxytoca (n=5), Klebsiella pneumoniae (n=87), Kluyvera spp (n=1), Proteus mirabilis (n=8), Providencia rettgeri (n=2), Salmonella spp (n=3), and Serratia marcescens (n=1). Among these 197 isolates, there were 128 (65%) carbapenemase producers, including; 87 with NDM-1, 9 with IMP, 11 with KPC, 14 with OXA-48 and 7 with VIM. The majority of the carbapenemase producers jointly produced broad-spectrum β-lactamases (BSBL) or cephalosporinases (AmpC β-lactamases), but the latter are not documented for the sake of clarity.
as §1

AmpC (22) = assay: MIC by agar dilution; assay type: cell-based, Enterobacteriaceae
Source text: as §3, §1

All S. aureus (50) = assay: MIC by agar dilution; assay type: cell-based, Staphylococcus aureus; settings: All S. aureus (50)
Source text: as §2, §1

K. pneumoniae (87) = assay: MIC by agar dilution; assay type: cell-based, Klebsiella pneumoniae; settings: Klebsiella pneumoniae, K. pneumoniae (87)
Source text: as §3, §1

Enterobacteriaceae (197) = assay: MIC by agar dilution; assay type: cell-based; settings: Enterobacteriaceae (197)
Source text: as §3, §1

[22] = test system: carbapenemase-producing Enterobacteriaceae; assay: MIC by agar dilution; assay type: cell-based
Source text: as §3, §1

[23] = test system: Enterobacteriaceae with a broad-spectrum β-lactamase; assay: MIC by agar dilution; assay type: cell-based
Source text: as §3, §1

E. faecalis (11) = assay: MIC by agar dilution; assay type: cell-based, Enterococcus faecalis; settings: Enterococcus faecalis, E. faecalis (11)
Source text: as §2, §1

E. cloacae (27) = assay: MIC by agar dilution; assay type: cell-based, Enterobacter cloacae; settings: E. cloacae (27)
Source text: as §3, §1

[24] = read-out: Modal MIC (most frequent MIC)
[25] = Staphylococcus aureus, read-out: MIC50
[26] = Staphylococcus aureus, read-out: MIC90
[27] = Staphylococcus aureus, read-out: Modal MIC (most frequent MIC)

MIC [1]: > 8 µg/mL | MIC [2]: 1 µg/mL (≈ 3.39 µM) | MIC [3]: > 8 µg/mL | MIC [4]: > 8 µg/mL | MIC [5]: 1 µg/mL (≈ 3.39 µM) | MIC [6]: 0.25 µg/mL (≈ 0.847 µM) | MIC [7]: 1 µg/mL (≈ 3.39 µM) | MIC [8]: 0.25 µg/mL (≈ 0.847 µM) | MIC [9]: 1 µg/mL (≈ 3.39 µM) | MIC [10]: 0.063 µg/mL (≈ 0.213 µM) | MIC [11]: > 8 µg/mL | MIC [12]: > 8 µg/mL | MIC [13]: > 8 µg/mL | MIC [14]: > 8 µg/mL | MIC [15]: 0.125 µg/mL (≈ 0.423 µM) | MIC [16]: > 8 µg/mL | MIC [17]: > 8 µg/mL | MIC [18]: 1 µg/mL (≈ 3.39 µM)
Structure (SMILES): CCC[C@H](N)C(=O)N[C@@H](C)C(=O)NC(C)P(=O)(O)O (stereo partly drawn) [compound I, L-norvalinyl-L-alanyl-D/L-fosfalin]

Structure (SMILES): C[C@H](NC(=O)[C@H](CCl)NC(=O)[C@@H](N)CCl)P(=O)(O)O [β-Cl-Ala-β-Cl-Alafosfalin, β-chloro-L-alanyl-β-chloro-L-alanyl-L-1-aminoethylphosphonic acid]
MIC50 (E. faecium (34); read-out: MIC50): 8 µg/mL (≈ 23.8 µM) | MIC90 (E. faecium (34); read-out: MIC90): 8 µg/mL (≈ 23.8 µM) | MIC (E. faecium (34); [24]): 8 µg/mL (≈ 23.8 µM) | MIC50 ([19]; read-out: MIC50): 8 µg/mL (≈ 23.8 µM) | MIC90 ([19]; read-out: MIC90): 16 µg/mL (≈ 47.6 µM) | MIC50 (All Enterococci (50); read-out: MIC50): 8 µg/mL (≈ 23.8 µM) | MIC90 (All Enterococci (50); read-out: MIC90): 16 µg/mL (≈ 47.6 µM) | MIC (All Enterococci (50); [24]): 8 µg/mL (≈ 23.8 µM) | MIC Range [20]: 4 to 16 µg/mL | MIC50 [20, 25]: 16 µg/mL (≈ 47.6 µM) | MIC90 [20, 26]: 16 µg/mL (≈ 47.6 µM) | MIC [20, 27]: 16 µg/mL (≈ 47.6 µM) | MIC Range ([21]; MRSA (37)): 2 to 16 µg/mL | MIC ([21]; Staphylococcus aureus, MRSA, read-out: Modal MIC (most frequent MIC)): 16 µg/mL (≈ 47.6 µM) | MIC50 ([21]; Staphylococcus aureus, MRSA (37), read-out: MIC50): 16 µg/mL (≈ 47.6 µM) | MIC90 ([21]; Staphylococcus aureus, MRSA (37), read-out: MIC90): 16 µg/mL (≈ 47.6 µM) | MIC Range (E. coli (53)): ≤0.031-1 ^ μg/mL | MIC50 (E. coli (53); Escherichia coli, read-out: MIC50): 0.25 µg/mL (≈ 0.744 µM) | MIC90 (E. coli (53); Escherichia coli, read-out: MIC90): 1 µg/mL (≈ 2.98 µM) | MIC (E. coli (53); Escherichia coli, read-out: Modal MIC (most frequent MIC)): 0.25 µg/mL (≈ 0.744 µM) | MIC90 (AmpC (22)): > 8 µg/mL | MIC (AmpC (22); [24]): > 8 µg/mL | MIC Range (All S. aureus (50)): 2 to 16 µg/mL | MIC50 (All S. aureus (50); [25]): 16 µg/mL (≈ 47.6 µM) | MIC90 (All S. aureus (50); [26]): 16 µg/mL (≈ 47.6 µM) | MIC (All S. aureus (50); [27]): 16 µg/mL (≈ 47.6 µM) | MIC50 (K. pneumoniae (87); read-out: MIC50): 4 µg/mL (≈ 11.9 µM) | MIC90 (K. pneumoniae (87); read-out: MIC90): > 8 µg/mL | MIC (K. pneumoniae (87); [24]): 4 µg/mL (≈ 11.9 µM) | MIC50 (Enterobacteriaceae (197); read-out: MIC50): 2 µg/mL (≈ 5.95 µM) | MIC90 (Enterobacteriaceae (197); read-out: MIC90): > 8 µg/mL | MIC (Enterobacteriaceae (197); [24]): 4 µg/mL (≈ 11.9 µM) | MIC50 [22]: 2 µg/mL (≈ 5.95 µM) | MIC90 [22]: 8 µg/mL (≈ 23.8 µM) | MIC [22, 24]: 4 µg/mL (≈ 11.9 µM) | MIC50 [23]: 4 µg/mL (≈ 11.9 µM) | MIC90 [23]: > 8 µg/mL | MIC [23, 24]: > 8 µg/mL | MIC50 (E. faecalis (11); read-out: MIC50): 0.25 µg/mL (≈ 0.744 µM) | MIC90 (E. faecalis (11); read-out: MIC90): 4 µg/mL (≈ 11.9 µM) | MIC (E. faecalis (11); [24]): 0.25 µg/mL (≈ 0.744 µM) | MIC Range (E. cloacae (27)): 0.25 to 8 µg/mL | MIC50 (E. cloacae (27); Enterobacter cloacae, read-out: MIC50): 1 µg/mL (≈ 2.98 µM) | MIC90 (E. cloacae (27); Enterobacter cloacae, read-out: MIC90): 4 µg/mL (≈ 11.9 µM) | MIC (E. cloacae (27); Enterobacter cloacae, read-out: Modal MIC (most frequent MIC)): 1 µg/mL (≈ 2.98 µM)
